{
  "source": "patent US20230293640A1",
  "about": "“COMPOUNDS FOR THE TREATMENT OF ENDOTHELIITIS IN CONTEXT OF VIRALLY CAUSED DISEASES” (F4 PHARMA GMBH, priority 2020, published 2023)",
  "key": {"[1]": {"test_system": "COVID-19-associated severe ARDS", "conditions": "data of the 3 patients of example 2", "from_the_text": "Example 2: Critically ill patients suffering from a COVID-19 infection in a second university care centre.\nTo this date, we treated three patients in individualized therapeutic attempts with FX06 in the second university care center.\nAll three patients were diagnosed with SARS-CoV-2 pneumonia resulting in severe acute respiratory distress syndrome (ARDS) and required extracorporeal membrane oxygenation (ECMO) therapy upon or early during their treatment in our facility. All patients were referred to our hospital from basic care providers due to the severity of their conditions. All patients required ECMO therapy at the time of FX06 treatment.\nFX06 400 mg was administered once per day after informed consent by the close relative."}, "[2]": {"conditions": "human, in vivo; cited from earlier work"}},
  "note": "Where a SMILES comes first, the peptide text is derived from it.",
  "data": [
    {"smiles": "CC[C@H](C)[C@H](NC(=O)[C@@H]1CCCN1C(=O)[C@@H]1CCCN1C(=O)[C@@H]1CCCN1C(=O)[C@H](C)NC(=O)[C@@H]1CCCN1C(=O)[C@H](CCCNC(=N)N)NC(=O)[C@H](CC(C)C)NC(=O)[C@H](CO)NC(=O)[C@@H]1CCCN1C(=O)[C@H](C)NC(=O)[C@H](CCC(=O)O)NC(=O)[C@H](CCC(=O)O)NC(=O)[C@H](CCCNC(=N)N)NC(=O)[C@H](CCCCN)NC(=O)[C@H](CCCCN)NC(=O)[C@H](CC(=O)O)NC(=O)[C@H](CC(C)C)NC(=O)[C@@H]1CCCN1C(=O)[C@H](CCCNC(=N)N)NC(=O)[C@H](Cc1c[nH]cn1)NC(=O)CN)C(=O)N[C@@H](CO)C(=O)NCC(=O)NCC(=O)NCC(=O)N[C@@H](Cc1ccc(O)cc1)C(=O)N[C@@H](CCCNC(=N)N)C(=O)O", "note": "[FX06] (H-GHRPLDKKREEAPSLRPAPPPISGGGYR-OH)", "values": [
      {"measurement": "safety in severe ARDS", "setting": "[1]", "value": "safe to use"},
      {"measurement": "tolerability / safety profile in clinical trials", "setting": "[2]", "value": "well tolerated with a benign safety profile"}
    ]}
  ]
}
